Reference: ChEMBL document CHEMBL5576049, “Synthesis and cytotoxicity of novel 6,8,9-trisubstituted purine analogs against liver cancer cells” (Bioorg Med Chem Lett, 2024)
Activity calls are given as the source filed them. No cut-off for these calls is given here.

How the values were obtained:
Assay type in all cases: functional, cell-based
HCT-116 = test: Cytotoxicity against human HCT-116 cells assessed as cell growth inhibition incubated for 72 hrs by SRB assay; details: for IC50: HCT-116, 72 h
MCF7 = test: Cytotoxicity against human MCF7 cells assessed as cell growth inhibition incubated for 72 hrs by SRB assay; details: for IC50: MCF7, 72 h
Huh-7 = test: Cytotoxicity against human Huh-7 cells assessed as cell growth inhibition incubated for 72 hrs by SRB assay; details: for IC50: Huh-7, 72 h
SNU-398 = test: Cytotoxicity against human SNU-398 cells assessed as cell growth inhibition incubated for 72 hrs by SRB assay; details: SNU-398, 72 h
[1] = Cytotoxicity against human FOCUS cells assessed as cell growth inhibition incubated for 72 hrs by SRB assay
Mahlavu = test: Cytotoxicity against human Mahlavu cells assessed as cell growth inhibition incubated for 72 hrs by SRB assay
SNU-387 = test: Cytotoxicity against human SNU-387 cells assessed as cell growth inhibition incubated for 72 hrs by SRB assay; details: SNU-387, 72 h
PLC = test: Cytotoxicity against human PLC cells assessed as cell growth inhibition incubated for 72 hrs by SRB assay
Hep 3B2 = test: Cytotoxicity against human Hep3B cells assessed as cell growth inhibition incubated for 72 hrs by SRB assay
SNU-423 = test: Cytotoxicity against human SNU-423 cells assessed as cell growth inhibition incubated for 72 hrs by SRB assay; details: SNU-423, 72 h
SNU-449 = test: Cytotoxicity against human SNU-449 cells assessed as cell growth inhibition incubated for 72 hrs by SRB assay; details: SNU-449, 72 h
SNU-182 = test: Cytotoxicity against human SNU-182 cells assessed as cell growth inhibition incubated for 72 hrs by SRB assay; details: SNU-182, 72 h
SNU-475 = test: Cytotoxicity against human SNU-475 cells assessed as cell growth inhibition by SRB assay
HepG2 = test: Cytotoxicity against human HepG2 cells assessed as cell growth inhibition incubated for 72 hrs by SRB assay; details: HepG2, 72 h

SMILES: COc1ccc(-c2nc3c(N4CCN(c5ccccc5)CC4)ncnc3n2C2CCCC2)cc1
- IC50 (HCT-116): 42.3 µM
- Activity (MCF7): inactive
- IC50 (Huh-7): 57.1 µM

SMILES: Cc1ccc(N2CCN(c3ncnc4c3nc(-c3ccc(Br)cc3)n4C3CCCC3)CC2)cc1
- IC50 (HCT-116): 52.3 µM
- IC50 (MCF7): 24.8 µM
- IC50 (Huh-7): 28.4 µM

SMILES: Cc1ccc(N2CCN(c3ncnc4c3nc(-c3ccc(Cl)cc3)n4C3CCCC3)CC2)cc1
- IC50 (HCT-116): 6.5 µM
- IC50 (MCF7): 21.6 µM
- IC50 (Huh-7): 15.7 µM

SMILES: Clc1ccc(-c2nc3c(N4CCN(c5ccc(Cl)cc5)CC4)ncnc3n2C2CCCC2)cc1
- IC50 (HCT-116): 64.9 µM
- IC50 (MCF7): 35.8 µM
- IC50 (Huh-7): 39 µM

SMILES: FC(F)(F)c1ccc(-c2nc3c(N4CCN(c5ccc(Cl)cc5)CC4)ncnc3n2C2CCCC2)cc1
- Activity (HCT-116): inactive
- IC50 (MCF7): 57.9 µM
- IC50 (Huh-7): 61.4 µM

SMILES: Cc1ccc(-c2nc3c(N4CCN(c5ccc(C(F)(F)F)cc5)CC4)ncnc3n2C2CCCC2)cc1
- IC50 (HCT-116): 34.3 µM
- IC50 (MCF7): 26.2 µM
- IC50 (Huh-7): 13.1 µM

SMILES: Nc1nc(F)nc2c1ncn2[C@@H]1O[C@H](CO)[C@@H](O)[C@@H]1O [FLUDARABINE]
- IC50 (Huh-7): 28.4 µM

SMILES: FC(F)(F)c1ccc(N2CCN(c3ncnc4c3nc(-c3ccc(Cl)cc3)n4C3CCCC3)CC2)cc1
- Activity (HCT-116): inactive
- IC50 (MCF7): 30.3 µM
- IC50 (Huh-7): 19.4 µM

SMILES: Cc1ccc(N2CCN(c3ncnc4c3nc(-c3ccc(F)cc3)n4C3CCCC3)CC2)cc1
- IC50 (HCT-116): 26.1 µM
- Activity (MCF7): inactive
- IC50 (Huh-7): 20.8 µM

SMILES: Clc1ccc(N2CCN(c3ncnc4c3nc(-c3ccc(Br)cc3)n4C3CCCC3)CC2)cc1Cl
- Activity (HCT-116): inactive
- IC50 (MCF7): 60.7 µM
- Activity (Huh-7): inactive

SMILES: Cc1ccc(-c2nc3c(N4CCN(c5ccc(C)cc5)CC4)ncnc3n2C2CCCC2)cc1
- IC50 (HCT-116): 33.4 µM
- IC50 (MCF7): 47.5 µM
- IC50 (Huh-7): 17.4 µM

SMILES: Fc1ccc(-c2nc3c(N4CCN(c5ccc(Cl)cc5)CC4)ncnc3n2C2CCCC2)cc1
- IC50 (HCT-116): 51.4 µM
- Activity (MCF7): inactive
- IC50 (Huh-7): 20.2 µM

SMILES: COc1ccc(-c2nc3c(N4CCN(c5ccc(C)cc5)CC4)ncnc3n2C2CCCC2)cc1
- Activity (HCT-116): inactive
- IC50 (MCF7): 58.4 µM
- Activity (Huh-7): inactive

SMILES: COc1ccc(-c2nc3c(N4CCN(c5ccc(C(F)(F)F)cc5)CC4)ncnc3n2C2CCCC2)cc1
- Activity (HCT-116): inactive
- Activity (MCF7): inactive
- IC50 (Huh-7): 9.8 µM

SMILES: Nc1nc(Cl)nc2c1ncn2[C@H]1C[C@H](O)[C@@H](CO)O1 [CLADRIBINE]
- IC50 (SNU-398): < 0.1 µM
- IC50 (HCT-116): < 0.1 µM
- IC50 [1]: < 0.1 µM
- IC50 (Mahlavu): < 0.1 µM
- IC50 (MCF7): 2.4 µM
- IC50 (Huh-7): 0.9 µM

SMILES: Clc1ccc(-c2nc3c(N4CCN(c5ccc(Cl)c(Cl)c5)CC4)ncnc3n2C2CCCC2)cc1
- Activity (HCT-116): inactive
- Activity (MCF7): inactive
- IC50 (Huh-7): 58.7 µM

SMILES: Fc1ccc(-c2nc3c(N4CCN(c5ccc(Cl)c(Cl)c5)CC4)ncnc3n2C2CCCC2)cc1
- IC50 (HCT-116): 50.6 µM
- Activity (MCF7): inactive
- IC50 (Huh-7): 30 µM

SMILES: O=c1[nH]cc(F)c(=O)[nH]1 [FLUOROURACIL]
- IC50 (HCT-116): 4.1 µM

SMILES: Fc1ccc(-c2nc3c(N4CCN(c5ccccc5)CC4)ncnc3n2C2CCCC2)cc1
- IC50 (HCT-116): 13.7 µM
- IC50 (MCF7): 68.2 µM
- IC50 (Huh-7): 11.4 µM

SMILES: FC(F)(F)c1ccc(-c2nc3c(N4CCN(c5ccc(C(F)(F)F)cc5)CC4)ncnc3n2C2CCCC2)cc1
- IC50 (SNU-387): 98.7 µM
- IC50 (PLC): 99.1 µM
- IC50 (Hep 3B2): 10.3 µM
- IC50 (SNU-423): 24.9 µM
- IC50 (SNU-398): 19 µM
- IC50 (HCT-116): 10.8 µM
- IC50 (SNU-449): 60.6 µM
- IC50 [1]: 4.5 µM
- IC50 (SNU-182): 16.4 µM
- IC50 (Mahlavu): 19.8 µM
- IC50 (MCF7): 6.1 µM
- IC50 (SNU-475): 17 µM
- IC50 (HepG2): 6.6 µM
- IC50 (Huh-7): 9.3 µM

SMILES: Cc1ccc(-c2nc3c(N4CCN(c5ccccc5)CC4)ncnc3n2C2CCCC2)cc1
- IC50 (HCT-116): 18.8 µM
- IC50 (MCF7): 21.4 µM
- IC50 (Huh-7): 12.9 µM

SMILES: FC(F)(F)c1ccc(-c2nc3c(N4CCN(c5ccccc5)CC4)ncnc3n2C2CCCC2)cc1
- IC50 (HCT-116): 25.3 µM
- IC50 (MCF7): 25.9 µM
- IC50 (Huh-7): 7.6 µM

SMILES: FC(F)(F)c1ccc(-c2nc3c(N4CCN(c5ccc(Cl)c(Cl)c5)CC4)ncnc3n2C2CCCC2)cc1
- Activity (HCT-116): inactive
- IC50 (MCF7): 7.2 µM
- IC50 (Huh-7): 35.1 µM

SMILES: Cc1ccc(-c2nc3c(N4CCN(c5ccc(Cl)cc5)CC4)ncnc3n2C2CCCC2)cc1
- Activity (HCT-116): inactive
- Activity (MCF7): inactive
- IC50 (Huh-7): 61.8 µM

SMILES: COc1ccc(-c2nc3c(N4CCN(c5ccc(Cl)cc5)CC4)ncnc3n2C2CCCC2)cc1
- IC50 (HCT-116): 30.9 µM
- IC50 (MCF7): 69.8 µM
- IC50 (Huh-7): 5.5 µM

SMILES: Fc1ccc(-c2nc3c(N4CCN(c5ccc(C(F)(F)F)cc5)CC4)ncnc3n2C2CCCC2)cc1
- IC50 (HCT-116): 13.5 µM
- IC50 (MCF7): 32.4 µM
- IC50 (Huh-7): 11.4 µM

SMILES: Brc1ccc(-c2nc3c(N4CCN(c5ccccc5)CC4)ncnc3n2C2CCCC2)cc1
- IC50 (HCT-116): 28.8 µM
- IC50 (MCF7): 15 µM
- IC50 (Huh-7): 11.1 µM

SMILES: Cc1ccc(-c2nc3c(N4CCN(c5ccc(Cl)c(Cl)c5)CC4)ncnc3n2C2CCCC2)cc1
- Activity (HCT-116): inactive
- Activity (MCF7): inactive
- Activity (Huh-7): inactive

SMILES: Clc1ccc(-c2nc3c(N4CCN(c5ccccc5)CC4)ncnc3n2C2CCCC2)cc1
- IC50 (HCT-116): 5.8 µM
- IC50 (MCF7): 19.8 µM
- IC50 (Huh-7): 23.2 µM

SMILES: COc1ccc(-c2nc3c(N4CCN(c5ccc(Cl)c(Cl)c5)CC4)ncnc3n2C2CCCC2)cc1
- IC50 (HCT-116): 33.6 µM
- IC50 (MCF7): 30.6 µM
- IC50 (Huh-7): 7.4 µM

SMILES: Cc1ccc(N2CCN(c3ncnc4c3nc(-c3ccc(C(F)(F)F)cc3)n4C3CCCC3)CC2)cc1
- IC50 (HCT-116): 46.2 µM
- IC50 (MCF7): 30.1 µM
- IC50 (Huh-7): 16.1 µM

SMILES: FC(F)(F)c1ccc(N2CCN(c3ncnc4c3nc(-c3ccc(Br)cc3)n4C3CCCC3)CC2)cc1
- IC50 (HCT-116): 58.5 µM
- IC50 (MCF7): 17.4 µM
- IC50 (Huh-7): 58.1 µM

SMILES: Clc1ccc(N2CCN(c3ncnc4c3nc(-c3ccc(Br)cc3)n4C3CCCC3)CC2)cc1
- Activity (HCT-116): inactive
- IC50 (MCF7): 51.6 µM
- Activity (Huh-7): inactive
